Source: the Deep4Chem optical property database
Values joined by “and” are separate entries in the source; they are usually repeats but may differ in a detail not shown here. Identical values can stand only once. One block for each molecule: values may come before it.

Assay: solvent given as SMILES

Compound: CC1(C)C2=C(c3ccc(N(c4ccccc4)c4ccccc4)cc31)P(=O)(c1ccccc1)c1ccccc12 (stereo unspecified)
- emission maximum (in CC#N): 580 nm
- emission maximum (in CO): 598 nm
- emission maximum (in Cc1ccccc1): 511 nm

Compound: CCCCN(CCCC)c1ccc2c#cc3cc4c#cc5ccc(N(CCCC)CCCC)cc5c#cc#cc5cc(C(F)(F)F)ccc5c#cc4cc3c#cc3ccc(C(F)(F)F)cc3c#cc#cc2c1
- emission maximum (in ClCCl): 544 nm
- emission maximum (in c1ccccc1): 501 nm

Compound: C/C=C/c1cccc(OC)c1
- emission maximum (in CC#N): 327 nm
- emission maximum (in CCCCCC): 325 nm

Compound: CCN(CC)c1ccc2c(C)cc(=O)oc2c1
- emission maximum (in C1CCCCC1): 395 nm
- emission maximum (in CC#N): 430 nm
- emission maximum (in CCCCCCCCO): 443 nm
- emission maximum (in CCCCCCO): 444 nm
- emission maximum (in CCCCO): 447 nm
- emission maximum (in CCCO): 452 nm
- emission maximum (in CCO): 454 nm and 451 nm
- emission maximum (in CCOC(C)=O): 416 nm
- emission maximum (in CO): 462 nm
- emission maximum (in O): 470 nm
- emission maximum (in OCC(O)CO): 463 nm

Compound: CC(C)[Si](C#Cc1c2nsnc2c(C#C[Si](C(C)C)(C(C)C)C(C)C)c2nc3c(nc12)C1c2ccccc2C3c2ccccc21)(C(C)C)C(C)C
- emission maximum (in CCCCCC): 526 nm

Compound: CC1(C)c2ccccc2N(c2ccc(-c3ccc(C#N)nc3)cc2)c2ccccc21
- emission maximum (in Cc1ccccc1): 488 nm
- emission maximum (in N#Cc1ccc2c(c1)c1ccccc1n2-c1cccc(-n2c3ccccc3c3ccccc32)c1): 490 nm

Compound: CC(C)(C)c1ccc2c(c1)c1cc(C(C)(C)C)ccc1n2-c1cccc2c1Oc1c(-c3nc(-c4ccccc4)nc(-c4ccccc4)n3)cccc1C2(C)C
- emission maximum (in C1CCCCC1): 428 nm
- emission maximum (in CC(C)=O): 503 nm
- emission maximum (in Cc1ccccc1): 451 nm
- emission maximum (in ClC(Cl)Cl): 489 nm

Compound: F[B-]1(F)N2C=CN=CC2=[N+]2[N+]1=Cc1c(-c3ccccc3)cc(-c3cccs3)n1[B-]2(F)F
- emission maximum (in ClCCl): 566 nm

Compound: Cc1ccc(C2=C(/C=C/C(=O)OC3CC[C@@]4(C)C(=CC[C@H]5[C@@H]6CC[C@H]([C@H](C)CCCC(C)C)[C@@]6(C)CC[C@@H]54)C3)C(c3ccc(C)cc3)=[N+]3C2=Nc2c(-c4ccc(C)cc4)c(Br)c(-c4ccc(C)cc4)n2[B-]3(F)F)cc1 (stereo partly specified)
- emission maximum (in ClC(Cl)Cl): 704 nm

Compound: CCCCCCOc1ccc(N(c2ccc(OCCCCCC)cc2)c2ccc(-c3sc(-c4ccc(N(c5ccc(OCCCCCC)cc5)c5ccc(OCCCCCC)cc5)cc4)c4nc(-c5ccc(OC)cc5)c(-c5ccc(OC)cc5)nc34)cc2)cc1
- emission maximum (in ClCCl): 752 nm

Compound: O=C(c1ccc2c3c(cccc13)-c1cccc3c1C2CC=C3)c1c(CCc2ccccc2)c2ccc3cccc4c5cccc6ccc1c(c65)c2c34 (stereo unspecified)
- emission maximum (in ClCCl): 527 nm

Compound: COc1cc(C2=c3c(c4ccc(C(C)(C)C)cc4c4c(OC)c(OC)c(OC)cc34)=[N+]3C2=Nc2c(-c4cc(OC)c(OC)c(OC)c4)c4c5cc(OC)c(OC)c(OC)c5c5cc(C(C)(C)C)ccc5c4n2[B-]3(F)F)cc(OC)c1OC
- emission maximum (in Cc1ccccc1): 820 nm

Compound: COC(=O)c1nc2c(N(C)C)nc(N)nc2n1Cc1ccccc1
- emission maximum (in C1COCCO1): 391 nm
- emission maximum (in CC#N): 399 nm
- emission maximum (in CO): 420 nm
- emission maximum (in ClCCl): 393 nm

Compound: Nc1ccc(-c2ccc(N)cc2)cc1
- emission maximum (in C1CCOC1): 394 nm
- emission maximum (in C1COCCO1): 392 nm
- emission maximum (in CC#N): 393 nm
- emission maximum (in CCCCCC): 373 nm
- emission maximum (in CCOC(C)=O): 391 nm
- emission maximum (in CN(C)C=O): 403 nm
- emission maximum (in CO): 397 nm
- emission maximum (in CS(C)=O): 404 nm
- emission maximum (in Cc1ccccc1): 395 nm
- emission maximum (in ClC(Cl)Cl): 384 nm
- emission maximum (in ClCCl): 384 nm
- emission maximum (in O): 401 nm

Compound: CCCCCCCCCCCCC(CCCCCCCCCC)Cn1c2cc(/C=C/C=C(C#N)C#N)c3cccc4c5cccc6c(/C=C/C=C(C#N)C#N)cc1c(c65)c2c34 (stereo unspecified)
- emission maximum (in C1CCCCC1): 648 nm
- emission maximum (in CC#N): 702 nm
- emission maximum (in Cc1ccccc1): 668 nm
- emission maximum (in ClCCl): 697 nm

Compound: c1ccc(Nc2nc(Nc3ccccc3)nc(Nc3ccc4ccc5cccc6ccc3c4c56)n2)cc1
- emission maximum (in CC#N): 395 nm
- emission maximum (in CCCCOCCCC): 394 nm
- emission maximum (in CO): 395 nm

Compound: C[Si](C)(C)c1ccc(-c2ccc(-c3ccc(-c4ccc(-c5ccc([Si](C)(C)C)cc5)s4)c4nsnc34)s2)cc1
- emission maximum (in C1CCOC1): 620 nm

Compound: CCC1=C(C)C2=Cc3cc(I)cn3[B-](F)(F)[N+]2=C1C
- emission maximum (in C1CCCCC1): 538.5 nm
- emission maximum (in CC(C)=O): 541 nm
- emission maximum (in CCO): 543 nm
- emission maximum (in CCOC(C)=O): 540.5 nm
- emission maximum (in CO): 542.5 nm
- emission maximum (in OCC(F)(F)F): 540 nm

Compound: Cn1c2nc(=O)[nH]c(=O)c-2nc2ccccc21
- emission maximum (in CC1CCCO1): 489 nm

Compound: CC(C)(C)c1ccc(-c2cc(-c3ccc(-c4cc(-c5ccc(C(C)(C)C)cc5)c(C(=O)NCc5cccs5)s4)s3)sc2C(=O)NCc2cccs2)cc1
- emission maximum (in ClCCl): 450 nm

Compound: c1ccc2sc(-c3ccc(-c4nnc(-c5ccc(-c6nnc(-c7ccc(-c8cc9ccccc9s8)s7)o6)cc5)o4)s3)cc2c1
- emission maximum (in C1COCCO1): 397 nm
- emission maximum (in CC#N): 399 nm
- emission maximum (in CC(=O)N(C)C): 406 nm
- emission maximum (in CCCCCCCCCCO): 389 nm
- emission maximum (in CCCCCCCCO): 399 nm
- emission maximum (in CCCCCCO): 399 nm
- emission maximum (in CCCCO): 399 nm
- emission maximum (in CCO): 400 nm
- emission maximum (in CS(C)=O): 423 nm
- emission maximum (in Cc1ccccc1): 399 nm
- emission maximum (in ClC(Cl)Cl): 399 nm

Compound: COc1c2ccccc2c(-c2ccccc2)c2ccccc12
- emission maximum (in C1COCCO1): 424 nm
- emission maximum (in CCCCCC): 420 nm
- emission maximum (in CCCCCCC): 420 nm
- emission maximum (in CCCCO): 426 nm
- emission maximum (in CCO): 426 nm
- emission maximum (in CN(C)C=O): 426 nm
- emission maximum (in Cc1ccccc1): 419 nm
- emission maximum (in ClC(Cl)(Cl)Cl): 426 nm
- emission maximum (in ClC(Cl)Cl): 426 nm
- emission maximum (in ClCCl): 426 nm
- emission maximum (in OCC(O)CO): 426 nm
- emission maximum (in OCCO): 426 nm

Compound: Cc1ccc2cc3c(=O)n(C)c(=O)n(C)c3nc2c1
- emission maximum (in CC#N): 405 nm
- emission maximum (in CC(C)O): 408 nm
- emission maximum (in CCO): 409 nm
- emission maximum (in CO): 409 nm
- emission maximum (in ClC(Cl)Cl): 406 nm
- emission maximum (in ClCCl): 405 nm

Compound: CCCCC1(CCCC)c2cc(/C=C/c3ccc(N(c4ccccc4)c4ccccc4)cc3)ccc2-c2cc3c(cc21)-c1ccc(/C=C/c2ccc(N(c4ccccc4)c4ccccc4)cc2)cc1C3(CCCC)CCCC
- emission maximum (in Cc1ccccc1): 450 nm

Compound: CC(C)(C)c1ccc(N(c2ccc(C(C)(C)C)cc2)c2ccc3c(N(c4ccc(C(C)(C)C)cc4)c4ccc(C(C)(C)C)cc4)cc4c5cc(N(c6ccc(C(C)(C)C)cc6)c6ccc(C(C)(C)C)cc6)ccc5c(N(c5ccc(C(C)(C)C)cc5)c5ccc(C(C)(C)C)cc5)cc4c3c2)cc1
- emission maximum (in CC#N): 470 nm
- emission maximum (in CCCCCC): 456 nm
- emission maximum (in ClCCl): 471 nm

Compound: Cc1ccc(-n2c(-c3cccc4cc[nH]c34)nc3c4ccccc4c4ccccc4c32)cc1
- emission maximum (in Cc1ccccc1): 377 nm

Compound: CCOC(=O)CN1C(=O)C2=C(c3ccc(C#N)cc3)N(CC(=O)OCC)C(=O)C2=C1c1ccc(C#N)cc1
- emission maximum (in CC#N): 549 nm
- emission maximum (in CS(C)=O): 557 nm
- emission maximum (in Cc1ccccc1): 558 nm

Second part, the molecule after the results:

- emission maximum (in C1CCCCC1): 482 nm
- emission maximum (in CC#N): 506 nm
- emission maximum (in CO): 500 nm
- emission maximum (in ClCCl): 506 nm
- emission maximum (in O): 507 nm
Compound: c1ccc(-c2nc(-c3c[nH]c4ccccc34)n3ccccc23)cc1

- emission maximum (in CC#N): 492 nm
- emission maximum (in CO): 507 nm
- emission maximum (in ClCCl): 488 nm
Compound: COc1ccc(-c2[nH]c(=O)n3c2-c2ccccc2C3=O)c(OC)c1

- emission maximum (in ClCCl): 385 nm
Compound: CC(C)(C)NC(=O)c1cccc2ccc3c4cc(F)ccc4c4ccc(F)cc4c3c12

- emission maximum (in CC1CCCCC1): 364 nm
- emission maximum (in CC#N): 390 nm
- emission maximum (in CO): 405 nm
Compound: COC(=O)C(NC(=O)OC(C)(C)C)c1ccc2oc(-c3cc(OC)ccc3OC)nc2c1 (stereo unspecified)

- emission maximum (in C1COCCO1): 461 nm
Compound: COC(=O)c1ccc(/C=C2\N=C(c3ccccc3)NC2=O)cc1

- emission maximum (in O): 552 nm
Compound: COc1ccc(-c2cc(N3CCCCC3)c(C#N)c3c2-c2cccc4cccc-3c24)cc1

- emission maximum (in CS(C)=O): 440 nm
Compound: O=C1CCCC2=C1C(c1ccccc1)c1c(c3ccccc3oc1=O)N2 (stereo unspecified)

- emission maximum (in C1CCOC1): 382 nm
- emission maximum (in C1COCCO1): 378 nm
- emission maximum (in CC#N): 388 nm
- emission maximum (in CC(C)O): 418 nm
- emission maximum (in CCCCO): 417 nm
- emission maximum (in CCCO): 416 nm
- emission maximum (in CCOC(C)=O): 378 nm
- emission maximum (in CN(C)C=O): 408 nm
- emission maximum (in CO): 421 nm
- emission maximum (in CS(C)=O): 402 nm
- emission maximum (in ClC(Cl)Cl): 380 nm
- emission maximum (in O): 435 nm
Compound: Cc1cc(=O)c2ccc(N)cc2o1

- emission maximum (in CC#N): 469 nm
Compound: O=c1oc2cc3c(cc2cc1/C=C/c1ccccc1)OCO3

- emission maximum (in CC#N): 403 nm
- emission maximum (in CCCCCC): 361 nm
- emission maximum (in CO): 431 nm
- emission maximum (in ClC(Cl)Cl): 383 nm
Compound: c1ccc2c(c1)cc(-c1cc(-c3nccs3)nc(-c3nccs3)c1)c1ccccc12

- emission maximum (in C1CCCCC1): 513 nm
- emission maximum (in CC#N): 604 nm
- emission maximum (in CCO): 667 nm
- emission maximum (in c1ccccc1): 544 nm
Compound: Nc1cccc2c1-c1ccccc1C2=O

- emission maximum (in CC#N): 517 nm
- emission maximum (in ClCCl): 511 nm
Compound: Cn1c(=O)cc(C(=O)c2ccccc2)c2sc(-c3ccc(C(F)(F)F)cc3)cc21

- emission maximum (in C1CCOC1): 374 nm
- emission maximum (in CC#N): 366 nm
- emission maximum (in CS(C)=O): 392 nm
- emission maximum (in ClC(Cl)Cl): 380 nm
Compound: COc1cccc2cc(-c3ccc([N+](=O)[O-])cc3)c(=N)oc12

- emission maximum (in CC#N): 553.72 nm
- emission maximum (in CS(C)=O): 555 nm
Compound: [O-]c1c(-c2nc3ccccc3s2)cc2ccc3cccc4ccc1c2c34

- emission maximum (in CC#N): 400 nm
- emission maximum (in CCO): 371 nm
- emission maximum (in CCOC(C)=O): 383 nm
- emission maximum (in CO): 377 nm
- emission maximum (in ClC(Cl)Cl): 374 nm
Compound: Nc1ncnc2c1c(C#Cc1ccc3ccccc3c1)cn2[C@H]1C[C@H](O)[C@@H](CO)O1

- emission maximum (in CCO): 642 nm
- emission maximum (in ClC(Cl)Cl): 640 nm
- emission maximum (in O): 652 nm
Compound: CCOC(=O)c1ccccc1-c1c2ccc(=[N+](CC)CC)cc-2oc2c1c(=O)oc1cc(N(CC)CC)ccc12
